≈ marks a conversion by molar mass, not a printed value. Read-outs that look alike come from different tables or passages of the source.
Tests used:
Solubility in FaSSIF = conditions: 23 °C, pH 6.5, fassif, thermodynamic from solid
Procedure, shortened: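 Concentration measured by HPLC-UV after solid compound was dosed at 5 mg/mL into pH 6.5 fasted-state simulated intestinal fluid containing taurocholate and lecithin (4:1 molar) and vortexed.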

[1] = molecular target: bovine intestinal alkaline phosphatase (Bos taurus (Bovine), UniProt P19111); experiment: BiALP: conversion by bovine intestinal alkaline phosphatase; assay type: in vitro ADME; conditions: 2 μM substrate, 100 ng/mL iALP, Tris pH 7.8, 37° C., 60 minutes; for [Intermediate A] or [Amprenavir]: parent formed
Procedure, shortened: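 Compounds at 2 μM final were incubated 60 min at 37° C in 0.1 M Tris-HCl pH 7.8 with 1 mM MgCl2 and 1 mM ZnCl2, with or without 100 ng/mL iALP (0.01 units/mL). Samples were quenched with acetonitrile/formic acid containing labetalol. Conversion was quantified by LC-MS peak area ratios against a 2 μM product standard.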

PBS Stability Assay = assay type: physicochemical; conditions: buffer, pH 7.4, 2 μM, phosphate buffered saline pH 7.4; read-out: PBS T½
Procedure, shortened: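 Test compound at 2 μM final was incubated in PBS, pH 7.4, and sampled at 0, 10, 20, 30, 60 and 120 min into acetonitrile/1% formic acid quench with labetalol internal standard. Remaining compound was quantified by LC-MS peak-area ratio, and half-life came from a first-order exponential fit.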

HIV-1 IIIB strain = experiment: MT-4 HIV Wild Type Virus Infection Assay (IIIB Virus); assay type: cell-based; conditions: Human immunodeficiency virus 1, IIIB, MT4, 120 h, MT-4 cells acutely infected with HIV-1 IIIB, 5 day incubation, Cell-titer glo
Procedure, shortened: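 MT-4 cells at 2×10^6 cells/ml in RPMI/10% FBS were acutely infected with HIV-1 IIIB for 1 h at 37° C, diluted 25× and added to serially diluted compounds. After 5 days at 37° C, viability read by CellTiter-Glo luminescence; EC50 from dose-response curves.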

[2] = Intestinal S9 Assay (dog GI S9); assay type: in vitro ADME; conditions: 1.0 mg/mL S9 protein; for Dog GI S9 [Intermediate A] / Dog GI S9 [Intermediate A] %: 2 μM, TRIS pH 7.4; for half-life at 2 μM: dog, TRIS pH 7.4, read-out: Dog GI S9 T½
Procedure, shortened: (§1)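 Pooled dog or human intestinal S9 at 1.0 mg/mL protein in TRIS buffer pH 7.4 with ZnCl2 and MgCl2; compound at 2 μM, sampled 0–120 min and quenched. Remaining parent by LC-MS peak area ratio; half-life from first-order exponential decline fit.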

[3] = Intestinal S9 Assay (human GI S9); assay type: in vitro ADME; conditions: 1.0 mg/mL S9 protein; for Human GI S9 [Intermediate A] / Human GI S9 [Intermediate A] %: 2 μM, TRIS pH 7.4; for half-life at 2 μM: human, TRIS pH 7.4, read-out: Human GI S9 T½
Procedure, shortened: as §1

Chain of bovine intestinal alkaline phosphatase (P19111 20-506): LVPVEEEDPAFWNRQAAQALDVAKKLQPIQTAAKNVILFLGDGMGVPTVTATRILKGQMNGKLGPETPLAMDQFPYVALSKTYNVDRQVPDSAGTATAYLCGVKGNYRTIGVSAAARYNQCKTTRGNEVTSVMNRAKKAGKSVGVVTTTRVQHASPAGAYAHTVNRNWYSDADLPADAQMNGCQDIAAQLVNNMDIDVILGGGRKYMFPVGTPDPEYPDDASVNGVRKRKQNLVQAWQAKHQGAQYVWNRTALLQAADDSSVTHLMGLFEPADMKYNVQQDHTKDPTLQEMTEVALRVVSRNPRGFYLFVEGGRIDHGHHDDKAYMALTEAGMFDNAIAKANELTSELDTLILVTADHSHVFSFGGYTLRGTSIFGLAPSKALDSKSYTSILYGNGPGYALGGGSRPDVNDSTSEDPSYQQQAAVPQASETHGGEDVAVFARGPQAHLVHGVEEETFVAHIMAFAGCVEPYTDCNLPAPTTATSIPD

## COC(=O)N[C@H](C(=O)N[C@@H](Cc1ccc(C#Cc2cnc(N3CC4CCC(C3)N4C3COC3)nc2)cc1)[C@H](CN(Cc1c(F)cc(-c2ccn(C(F)F)n2)cc1F)NC(=O)[C@@H](NC(=O)OC)C(C)(C)C(F)(F)F)OC(=O)CC(C)(C)c1c(CC(=O)Nc2cccc(C(=O)O)c2)cc(C)cc1OP(=O)(O)O)C(C)(C)C(F)(F)F [Example 14]
Solubility in FaSSIF
  solubility at 2 h: < 1000 µg/mL
[1]
  [Compound]: 2276.6 nM
  biALP Intermediate A or [Amprenavir] (% of total): 2.2 % of total
  [Intermediate A] or [Amprenavir]: 50.3 nM
PBS Stability Assay
  half-life at 2 μM: 5.58 h
HIV-1 IIIB strain
  EC50: 178 nM
[2]
  Dog GI S9 [Intermediate A]: 210.8 nM
  Dog GI S9 [Intermediate A] %: 13.8%
  half-life at 2 μM: 6.69 h
[3]
  Human GI S9 [Intermediate A]: 58.5 nM
  Human GI S9 [Intermediate A] %: 3.9%
  half-life at 2 μM: 10.1 h

## COC(=O)N[C@H](C(=O)N[C@@H](Cc1ccc(C#Cc2cnc(N3CC4CCC(C3)N4C3COC3)nc2)cc1)[C@H](CN(Cc1c(F)cc(-c2ccn(C(F)F)n2)cc1F)NC(=O)[C@@H](NC(=O)OC)C(C)(C)C(F)(F)F)OC(=O)CC(C)(C)c1c(CC(=O)NCC(=O)NS(C)(=O)=O)cc(C)cc1OP(=O)(O)O)C(C)(C)C(F)(F)F [Example 27, (5S,10S,11S,14S)-8-(4-(1-(difluoromethyl)-1H-pyrazol-3-yl)-2,6-difluorobenzyl)-11-(4-((2-(8-(oxetan-3-yl)-3,8-diazabicyclo[3.2.1]octan-3-yl)pyrimidin-5-yl)ethynyl)benzyl)-3,6,13,16-tetraoxo-5,14-bis(1,1,1-trifluoro-2-methylpropan-2-yl)-2,17-dioxa-4,7,8,12,15-pentaazaoctadecan-10-yl 3-methyl-3-(4-methyl-2-(2-((2-(methylsulfonamido)-2-oxoethyl)amino)-2-oxoethyl)-6-(phosphonooxy)phenyl)butanoate]
Solubility in FaSSIF
  solubility at 2 h: 4420 µg/mL (≈ 2730 µM)
[1]
  [Compound]: 2082.4 nM
PBS Stability Assay
  half-life at 2 μM: 6.41 h
HIV-1 IIIB strain
  EC50: 173 nM
[2]
  half-life at 2 μM: 1.82 h
[3]
  half-life at 2 μM: 2.46 h

## COC(=O)N[C@H](C(=O)N[C@@H](Cc1ccc(C#Cc2cnc(N3CC4CCC(C3)N4C3COC3)nc2)cc1)[C@H](CN(Cc1c(F)cc(-c2ccn(C(F)F)n2)cc1F)NC(=O)[C@@H](NC(=O)OC)C(C)(C)C(F)(F)F)OC(=O)CC(C)(C)c1c(CC(=O)O)cccc1OP(=O)(O)O)C(C)(C)C(F)(F)F [Example 5, 2-(2-((5S,10S)-8-(4-(1-(difluoromethyl)-1H-pyrazol-3-yl)-2,6-difluorobenzyl)-14-methyl-10-((1S)-2-(4-((2-(8-(oxetan-3-yl)-3,8-diazabicyclo[3.2.1]octan-3-yl)pyrimidin-5-yl)ethynyl)phenyl)-1-((S)-4,4,4-trifluoro-2-((methoxycarbonyl)amino)-3,3-dimethylbutanamido)ethyl)-3,6,12-trioxo-5-(1,1,1-trifluoro-2-methylpropan-2-yl)-2,11-dioxa-4,7,8-triazapentadecan-14-yl)-3-(phosphonooxy)phenyl)acetic acid]
Solubility in FaSSIF; FaSSIF (pH 6.5) solubility, FaSSIF pH 6.5, dose 5 mg/mL, 2-hour incubation, ambient temperature
  solubility: < 1000 µg/mL
[1]
  [Compound]: 1638.1 nM
PBS Stability Assay
  half-life at 2 μM: 7.62 h
HIV-1 IIIB strain; read-out: EC50
  EC50: 73.7 nM
[2]
  half-life at 2 μM: 0.74 h
[3]
  half-life at 2 μM: 11.6 h

## COC(=O)N[C@H](C(=O)N[C@@H](Cc1ccc(C#Cc2cnc(N3CC4CCC(C3)N4C3COC3)nc2)cc1)[C@H](CN(Cc1c(F)cc(-c2ccn(C(F)F)n2)cc1F)NC(=O)[C@@H](NC(=O)OC)C(C)(C)C(F)(F)F)OC(=O)CC(C)(C)c1c(CC(=O)N2C[C@@H](C(=O)O)C[C@H]2C(=O)O)cc(C)cc1OP(=O)(O)O)C(C)(C)C(F)(F)F [Example 10]
Solubility in FaSSIF
  solubility at 2 h: 3120 µg/mL (≈ 1920 µM)
[1]
  [Compound]: 1868.8 nM
  biALP Intermediate A or [Amprenavir] (% of total): 4.9 % of total
  [Intermediate A] or [Amprenavir]: 95.5 nM
PBS Stability Assay
  half-life at 2 μM: 9.92 h
HIV-1 IIIB strain
  EC50: 418 nM
[2]
  Dog GI S9 [Intermediate A]: 228.1 nM
  Dog GI S9 [Intermediate A] %: 18.4%
  half-life at 2 μM: 4.24 h
[3]
  Human GI S9 [Intermediate A]: 86.8 nM
  Human GI S9 [Intermediate A] %: 7.3%
  half-life at 2 μM: 9.22 h

## COC(=O)N[C@H](C(=O)N[C@@H](Cc1ccc(C#Cc2cnc(N3CC4CCC(C3)N4C3COC3)nc2)cc1)[C@H](CN(Cc1c(F)cc(-c2ccn(C(F)F)n2)cc1F)NC(=O)[C@@H](NC(=O)OC)C(C)(C)C(F)(F)F)OC(=O)CC(C)(C)c1c(CC(=O)N2CC[C@@H]2C(=O)O)cc(C)cc1OP(=O)(O)O)C(C)(C)C(F)(F)F [Example 9]
Solubility in FaSSIF
  solubility at 2 h: 2300 µg/mL (≈ 1470 µM)
[1]
  [Compound]: 2004.9 nM
  biALP Intermediate A or [Amprenavir] (% of total): 1.8 % of total
  [Intermediate A] or [Amprenavir]: 36.5 nM
PBS Stability Assay
  half-life at 2 μM: 10.4 h
HIV-1 IIIB strain
  EC50: 241 nM
[2]
  half-life at 2 μM: 1.14 h
[3]
  half-life at 2 μM: 8.93 h

## COC(=O)N[C@H](C(=O)N[C@@H](Cc1ccc(C#Cc2cnc(N3CC4CCC(C3)N4C3COC3)nc2)cc1)[C@H](CN(Cc1c(F)cc(-c2ccn(C(F)F)n2)cc1F)NC(=O)[C@@H](NC(=O)OC)C(C)(C)C(F)(F)F)OC(=O)CC(C)(C)c1c(CC(=O)N[C@@H](Cc2ccc(C(=O)O)cc2)C(=O)O)cc(C)cc1OP(=O)(O)O)C(C)(C)C(F)(F)F [Example 45]
Solubility in FaSSIF
  solubility at 2 h: 4300 µg/mL (≈ 2570 µM)
[1]
  [Compound]: 1787.4 nM
PBS Stability Assay
  half-life at 2 μM: 4.74 h
HIV-1 IIIB strain
  EC50: 209 nM
[2]
  half-life at 2 μM: 0.993 h
[3]
  half-life at 2 μM: 6.23 h

## COC(=O)N[C@H](C(=O)N[C@@H](Cc1ccc(C#Cc2cnc(N3CC4CCC(C3)N4C3COC3)nc2)cc1)[C@H](CN(Cc1c(F)cc(-c2ccn(C(F)F)n2)cc1F)NC(=O)[C@@H](NC(=O)OC)C(C)(C)C(F)(F)F)OC(=O)CC(C)(C)c1c(CC(=O)NC(CCP(=O)(O)O)C(=O)O)cc(C)cc1OP(=O)(O)O)C(C)(C)C(F)(F)F (some centres unmarked) [Example 35]
Solubility in FaSSIF
  solubility at 2 h: 3560 µg/mL (≈ 2160 µM)
[1]
  [Compound]: 2145.2 nM
PBS Stability Assay
  half-life at 2 μM: 3.27 h
HIV-1 IIIB strain
  EC50: 65.7 nM
[2]
  half-life at 2 μM: 0.235 h
[3]
  half-life at 2 μM: 3.21 h

## COC(=O)N[C@H](C(=O)N[C@@H](Cc1ccc(C#Cc2cnc(N3CC4CCC(C3)N4C3COC3)nc2)cc1)[C@H](CN(Cc1c(F)cc(-c2ccn(C(F)F)n2)cc1F)NC(=O)[C@@H](NC(=O)OC)C(C)(C)C(F)(F)F)OC(=O)CC(C)(C)c1c(CC(=O)NC23CC(C(=O)O)(C2)C3)cc(C)cc1OP(=O)(O)O)C(C)(C)C(F)(F)F [Example 38]
Solubility in FaSSIF
  solubility at 2 h: 3500 µg/mL (≈ 2200 µM)
[1]
  [Compound]: 1920.9 nM
PBS Stability Assay
  half-life at 2 μM: 5.16 h
HIV-1 IIIB strain
  EC50: 305 nM
[2]
  half-life at 2 μM: 6.52 h
[3]
  half-life at 2 μM: 7.82 h

## COC(=O)N[C@H](C(=O)N[C@@H](Cc1ccc(C#Cc2cnc(N3CC4CCC(C3)N4C3COC3)nc2)cc1)[C@H](CN(Cc1c(F)cc(-c2ccn(C(F)F)n2)cc1F)NC(=O)[C@@H](NC(=O)OC)C(C)(C)C(F)(F)F)OC(=O)CC(C)(C)c1c(CC(=O)NCP(=O)(O)O)cc(C)cc1OP(=O)(O)O)C(C)(C)C(F)(F)F [Example 104]
Solubility in FaSSIF
  solubility at 2 h: 2730 µg/mL (≈ 1730 µM)
[1]
  [Compound]: 1622.8 nM
PBS Stability Assay
  half-life at 2 μM: 4.75 h
HIV-1 IIIB strain
  EC50: 17.6 nM
[2]
  half-life at 2 μM: 0.15 h
[3]
  half-life at 2 μM: 2.1 h

## COC(=O)N[C@H](C(=O)N[C@@H](Cc1ccc(C#Cc2cnc(N3CC4CCC(C3)N4C3COC3)nc2)cc1)[C@H](CN(Cc1c(F)cc(-c2ccn(C(F)F)n2)cc1F)NC(=O)[C@@H](NC(=O)OC)C(C)(C)C(F)(F)F)OC(=O)CC(C)(C)c1c(CC(=O)Nc2ccc(/C=C/C(=O)O)cc2)cc(C)cc1OP(=O)(O)O)C(C)(C)C(F)(F)F [Example 52]
Solubility in FaSSIF
  solubility at 2 h: < 1000 µg/mL
[1]
  [Compound]: 2131.6 nM
PBS Stability Assay
  half-life at 2 μM: 5.92 h
HIV-1 IIIB strain
  EC50: 67.2 nM
[2]
  half-life at 2 μM: 2.59 h
[3]
  half-life at 2 μM: 5.07 h

## COC(=O)N[C@H](C(=O)N[C@@H](Cc1ccc(C#Cc2cnc(N3CC4CCC(C3)N4C3COC3)nc2)cc1)[C@H](CN(Cc1c(F)cc(-c2ccn(C(F)F)n2)cc1F)NC(=O)[C@@H](NC(=O)OC)C(C)(C)C(F)(F)F)OC(=O)CC(C)(C)c1c(CC(=O)NCC(=O)O)cc(C)cc1OP(=O)(O)O)C(C)(C)C(F)(F)F [Example 74]
Solubility in FaSSIF
  solubility at 2 h: 3340 µg/mL (≈ 2160 µM)
[1]
  [Compound]: 2044.2 nM
PBS Stability Assay
  half-life at 2 μM: 11.5 h
HIV-1 IIIB strain
  EC50: 194 nM
[2]
  half-life at 2 μM: 1.03 h
[3]
  half-life at 2 μM: 3.93 h
